Laboratory results as given in patent US20230210797A1, “PREVENTING AND TREATING HYPOGLYCEMIA” (DIAMYD MEDICAL AB, priority 2019, published 2023).
Entries after “also recorded” stand apart in the source; their conditions may differ.

What was measured:
growth hormone = experiment: Hypoglycemic clamp: plasma growth hormone levels; type: in vivo, human; details: for Growth hormone levels, change from baseline, Mean / Growth hormone levels, change from baseline, Median / Growth hormone levels, observed value, Mean / Growth hormone levels, observed value, Median: C-peptide undetectable, n=5
Method: (§1) In order to evaluate the counterregulatory hormone response to hypoglycemia, a hypoglycemic clamp will be performed. The Hypoglycemic Clamp must be performed according to the instructions in the Operations Manual. (Appendix 3)
(§2) The patient should: • Come to the study site following an overnight fast (>10 hours), i.e. the patient may not eat but is permitted to drink water • Not have taken the Remygen and, if applicable, Alprazolam dose in the morning • Not take short acting/direct acting insulin within 6 hours before the investigation. • The patient is allowed to take base-insulin day/night before, but not in the morning before the investigation.
(§3) Patients with CSII (insulin pump) must continue with their basal dose insulin, but not add bolus dose during the last 6 hours before the investigation.
(§4) If a patient has a blood sugar level <4 mmol/L in the morning of the scheduled visit, the patient is allowed to take dextrose tablets and then come to the study site. The patient is allowed to perform the investigation if the blood sugar level is >4 mmol/L.
(§5) In the dose-escalation part of the study, the patient will take study drug 30 min prior to start of the hypoglycemic clamp. In the main study, the study drug will instead be taken after finalization of the hypoglycemic clamp. Baseline blood samples will be obtained for glucose, glucagon, epinephrine, norepinephrine, growth hormone and cortisol. The clamp will then be initiated by an intravenous insulin infusion at a rate of 2 mU×kg^−1×min^−1. Glucose 100 mg/ml will then be administered in variable infusion rates to clamp the blood glucose concentration at 5.5 mmol/land then at 2.5 mmol/land kept stable for 30 min. Blood glucose will be evaluated repeatedly in order to find the optimal glucose infusion rate. Blood sampling to determined levels of counterregulatory hormones as described above will be performed at each of these target levels when a stable glucose concentration has been reached. The insulin infusion will thereafter be terminated and the patient is allowed to eat and will be observed until normoglycemia is achieved. If necessary, additional glucose administration will be given to allow blood glucose concentrations to normalize.
(§6) Plasma glucose was first lowered to normoglycemic levels (5.5 mmol/L) and hormone levels monitored, and then to hypoglycemic levels (2.5 mmol/L) and hormone levels monitored. Difference was calculated as a measurement of the response to hypoglycemia.

norepinephrine = experiment: Hypoglycemic clamp: plasma norepinephrine levels; type: in vivo, human; details: for Norepinephrine, change from baseline, Mean (SD) / Norepinephrine, change from baseline, Median (Min, Max) / Norepinephrine, observed value, Mean (SD) / Norepinephrine, observed value, Median (Min, Max): C-peptide undetectable, n=5
Method: as §1, §2, §3, §4, §5
Only patients with c-peptide levels that were undetectable (in a standard assay, i.e. <0.01 nmol/L) are included (5 of 6) in the data below.
as §6, with “Plasma levels of glucagon, cortisol, epinephrine, growth hormone and glucose were measured at baseline (increased glucose in T1D subjects). Plasma” for “Plasma”

[1] = Visit 5, 200 mg GABA per day, event 2.5 mmol/L
[2] = Visit 5, 200 mg GABA per day, event 5.5 mmol/L
[3] = Visit 5, 200 mg GABA per day, event Baseline
[4] = Visit 5, 200 mg GABA per day, event Diff 2.5-5.5 mmol/L
[5] = Visit 7, 600 mg GABA per day, event 2.5 mmol/L
[6] = Visit 7, 600 mg GABA per day, event 5.5 mmol/L
[7] = Visit 7, 600 mg GABA per day, event Baseline
[8] = Visit 7, 600 mg GABA per day, event Diff 2.5-5.5 mmol/L
[9] = Visit 9, 1200 mg GABA per day, event 2.5 mmol/L
[10] = Visit 9, 1200 mg GABA per day, event 5.5 mmol/L
[11] = Visit 9, 1200 mg GABA per day, event Baseline
[12] = Visit 9, 1200 mg GABA per day, event Diff 2.5-5.5 mmol/L

Compound: NCCCC(=O)O [GABA, Gamma-amino butyric acid]
- Growth hormone levels, change from baseline, Mean (growth hormone; [1]): 4.560 µg/L
- Growth hormone levels, change from baseline, Median (growth hormone; [1]): 3.400 µg/L
- Growth hormone levels, observed value, Mean (growth hormone; [1]): 11.632 µg/L
- Growth hormone levels, observed value, Median (growth hormone; [1]): 4.000 µg/L
- Growth hormone levels, change from baseline, Mean (growth hormone; [2]): -0.802 µg/L
- Growth hormone levels, change from baseline, Median (growth hormone; [2]): 0.000 µg/L
- Growth hormone levels, observed value, Mean (growth hormone; [2]): 2.110 µg/L
- Growth hormone levels, observed value, Median (growth hormone; [2]): 0.070 µg/L
- Growth hormone levels, change from baseline, Mean (growth hormone; [3]): 0.475 µg/L
- Growth hormone levels, change from baseline, Median (growth hormone; [3]): 0.035 µg/L
- Growth hormone levels, observed value, Mean (growth hormone; [3]): 0.630 µg/L
- Growth hormone levels, observed value, Median (growth hormone; [3]): 0.080 µg/L
- Growth hormone levels, change from baseline, Mean (growth hormone; [4]): 5.362 µg/L
- Growth hormone levels, change from baseline, Median (growth hormone; [4]): 4.000 µg/L
- Growth hormone levels, observed value, Mean (growth hormone; [4]): 9.522 µg/L
- Growth hormone levels, observed value, Median (growth hormone; [4]): 3.440 µg/L
- Growth hormone levels, change from baseline, Mean (growth hormone; [5]): 10.068 µg/L
- Growth hormone levels, change from baseline, Median (growth hormone; [5]): 9.000 µg/L
- Growth hormone levels, observed value, Mean (growth hormone; [5]): 17.140 µg/L
- Growth hormone levels, observed value, Median (growth hormone; [5]): 11.700 µg/L
- Growth hormone levels, change from baseline, Mean (growth hormone; [6]): -1.812 µg/L
- Growth hormone levels, change from baseline, Median (growth hormone; [6]): -0.340 µg/L
- Growth hormone levels, observed value, Mean (growth hormone; [6]): 1.100 µg/L
- Growth hormone levels, observed value, Median (growth hormone; [6]): 0.160 µg/L
- Growth hormone levels, change from baseline, Mean (growth hormone; [7]): 2.098 µg/L
- Growth hormone levels, change from baseline, Median (growth hormone; [7]): 0.090 µg/L
- Growth hormone levels, observed value, Mean (growth hormone; [7]): 2.253 µg/L
- Growth hormone levels, observed value, Median (growth hormone; [7]): 0.140 µg/L
- Growth hormone levels, change from baseline, Mean (growth hormone; [8]): 11.880 µg/L
- Growth hormone levels, observed value, Mean (growth hormone; [8]): 16.040 µg/L
- Growth hormone levels, observed value, Median (growth hormone; [8]): 10.820 µg/L
- Growth hormone levels, change from baseline, Mean (growth hormone; [9]): 7.388 µg/L
- Growth hormone levels, change from baseline, Median (growth hormone; [9]): 7.900 µg/L
- Growth hormone levels, observed value, Mean (growth hormone; [9]): 14.460 µg/L
- Growth hormone levels, observed value, Median (growth hormone; [9]): 14.000 µg/L
- Growth hormone levels, change from baseline, Mean (growth hormone; [10]): -1.468 µg/L
- Growth hormone levels, change from baseline, Median (growth hormone; [10]): -0.210 µg/L
- Growth hormone levels, observed value, Mean (growth hormone; [10]): 1.444 µg/L
- Growth hormone levels, observed value, Median (growth hormone; [10]): 0.170 µg/L
- Growth hormone levels, change from baseline, Median (growth hormone; [11]): 0.100 µg/L
- Growth hormone levels, observed value, Mean (growth hormone; [11]): 0.461 µg/L
- Growth hormone levels, observed value, Median (growth hormone; [11]): 0.170 µg/L
- Growth hormone levels, change from baseline, Mean (growth hormone; [12]): 8.856 µg/L
- Growth hormone levels, change from baseline, Median (growth hormone; [12]): 6.900 µg/L
- Growth hormone levels, observed value, Mean (growth hormone; [12]): 13.016 µg/L
- Growth hormone levels, observed value, Median (growth hormone; [12]): 8.600 µg/L
- Counter regulatory response of Growth hormone, effect of GABA treatment (growth hormone; change in levels when clamping to 2.5 mmol/L from 5.5 mmol/L): increased
- Normoglycemic levels of Growth hormone, effect of GABA treatment (growth hormone; clamped to 5.5 mmol/L): decrease
- Norepinephrine, change from baseline, Mean (SD) (norepinephrine; [1]): −0.44 (0.61) nmol(L
- Norepinephrine, change from baseline, Median (Min, Max) (norepinephrine; [1]): −0.30 (−1.3, 0.2) nmol(L
- Norepinephrine, observed value, Mean (SD) (norepinephrine; [1]): 1.82 (0.41) nmol(L
- Norepinephrine, observed value, Median (Min, Max) (norepinephrine; [1]): 1.90 (1.4, 2.3) nmol(L
- Norepinephrine, change from baseline, Mean (SD) (norepinephrine; [2]): −0.16 (0.52) nmol(L
- Norepinephrine, change from baseline, Median (Min, Max) (norepinephrine; [2]): 0.00 (−0.9, 0.5) nmol(L
- Norepinephrine, observed value, Mean (SD) (norepinephrine; [2]): 1.78 (0.52) nmol(L
- Norepinephrine, observed value, Median (Min, Max) (norepinephrine; [2]): 1.60 (1.2, 2.5) nmol(L
- Norepinephrine, change from baseline, Mean (SD) (norepinephrine; [3]): −0.34 (0.53) nmol(L
- Norepinephrine, change from baseline, Median (Min, Max) (norepinephrine; [3]): −0.50 (−0.9, 0.5) nmol(L
- Norepinephrine, observed value, Mean (SD) (norepinephrine; [3]): 1.46 (0.35) nmol(L
- Norepinephrine, observed value, Median (Min, Max) (norepinephrine; [3]): 1.50 (1.1, 2.0) nmol(L
- Norepinephrine, change from baseline, Mean (SD) (norepinephrine; [4]): −0.28 (0.59) nmol(L
- Norepinephrine, change from baseline, Median (Min, Max) (norepinephrine; [4]): 0.00 (−1.3, 0.1) nmol(L
- Norepinephrine, observed value, Mean (SD) (norepinephrine; [4]): 0.04 (0.29) nmol(L
- Norepinephrine, observed value, Median (Min, Max) (norepinephrine; [4]): 0.20 (−0.4, 0.3) nmol(L
- Norepinephrine, change from baseline, Mean (SD) (norepinephrine; [5]): −0.56 (0.73) nmol(L
- Norepinephrine, change from baseline, Median (Min, Max) (norepinephrine; [5]): −0.50 (−1.6, 0.3) nmol(L
- Norepinephrine, observed value, Mean (SD) (norepinephrine; [5]): 1.70 (0.27) nmol(L
- Norepinephrine, observed value, Median (Min, Max) (norepinephrine; [5]): 1.70 (1.4, 2.1) nmol(L
- Norepinephrine, change from baseline, Mean (SD) (norepinephrine; [6]): −0.10 (0.31) nmol(L
- Norepinephrine, change from baseline, Median (Min, Max) (norepinephrine; [6]): −0.10 (−0.4, 0.3) nmol(L
- Norepinephrine, observed value, Mean (SD) (norepinephrine; [6]): 1.84 (0.34) nmol(L
- Norepinephrine, observed value, Median (Min, Max) (norepinephrine; [6]): 2.00 (1.3, 2.1) nmol(L
- Norepinephrine, change from baseline, Mean (SD) (norepinephrine; [7]): −0.32 (0.49) nmol(L
- Norepinephrine, change from baseline, Median (Min, Max) (norepinephrine; [7]): −0.30 (−0.9, 0.4) nmol(L
- Norepinephrine, observed value, Mean (SD) (norepinephrine; [7]): 1.48 (0.70) nmol(L
- Norepinephrine, observed value, Median (Min, Max) (norepinephrine; [7]): 1.20 (1.0, 2.7) nmol(L
- Norepinephrine, change from baseline, Mean (SD) (norepinephrine; [8]): −0.46 (0.50) nmol(L
- Norepinephrine, change from baseline, Median (Min, Max) (norepinephrine; [8]): −0.50 (−1.2, 0.0) nmol(L
- Norepinephrine, observed value, Mean (SD) (norepinephrine; [8]): −0.14 (0.27) nmol(L
- Norepinephrine, observed value, Median (Min, Max) (norepinephrine; [8]): −0.30 (−0.4, 0.2) nmol(L
- Norepinephrine, change from baseline, Mean (SD) (norepinephrine; [9]): −0.66 (0.68) nmol(L
- Norepinephrine, change from baseline, Median (Min, Max) (norepinephrine; [9]): −0.70 (−1.6, 0.0) nmol(L
- Norepinephrine, observed value, Mean (SD) (norepinephrine; [9]): 1.60 (0.42) nmol(L
- Norepinephrine, observed value, Median (Min, Max) (norepinephrine; [9]): 1.60 (1.2, 2.2) nmol(L
- Norepinephrine, change from baseline, Mean (SD) (norepinephrine; [10]): −0.46 (0.84) nmol(L
- Norepinephrine, change from baseline, Median (Min, Max) (norepinephrine; [10]): −0.20 (−1.7, 0.4) nmol(L
- Norepinephrine, observed value, Mean (SD) (norepinephrine; [10]): 1.48 (0.50) nmol(L
- Norepinephrine, observed value, Median (Min, Max) (norepinephrine; [10]): 1.40 (0.8, 2.2) nmol(L
- Norepinephrine, change from baseline, Mean (SD) (norepinephrine; [11]): −0.58 (0.59) nmol(L
- Norepinephrine, change from baseline, Median (Min, Max) (norepinephrine; [11]): −0.50 (−1.3, 0.2) nmol(L
- Norepinephrine, observed value, Mean (SD) (norepinephrine; [11]): 1.22 (0.35) nmol(L
- Norepinephrine, observed value, Median (Min, Max) (norepinephrine; [11]): 1.00 (0.9, 1.6) nmol(L
- Norepinephrine, change from baseline, Mean (SD) (norepinephrine; [12]): −0.20 (0.55) nmol(L
- Norepinephrine, change from baseline, Median (Min, Max) (norepinephrine; [12]): −0.40 (−0.7, 0.7) nmol(L
- Norepinephrine, observed value, Mean (SD) (norepinephrine; [12]): 0.12 (0.41) nmol(L
- Norepinephrine, observed value, Median (Min, Max) (norepinephrine; [12]): 0.00 (−0.2, 0.8) nmol(L
- Normoglycemic levels of norepinephrine, effect of GABA treatment (norepinephrine; clamped to 5.5 mmol/L): decrease
- Baseline (no clamp) norepinephrine levels, effect of GABA treatment (norepinephrine; dose escalation part, oral GABA, type 1 diabetes patients with undetectable c-peptide): downregulated; also recorded: decrease
